One assay has as its system MT4. As to the kind of experiment: Compound was tested for effective concentration against MT-4 cell line. The following applies: Homo sapiens. Type of assay: functional, cell-based.
The subject of another assay is C8166. As to the kind of experiment: Compound was tested for effective concentration against C8166 cell line. Type of assay: functional, cell-based. The settings on record: Homo sapiens.
Assay [1] deals with Human immunodeficiency virus type 1 protease (Human immunodeficiency virus 1, UniProt Q72874). Description: In vitro inhibitory activity against HIV proteinase.

Structures are written as SMILES.

As usually defined, the EC50 is the concentration that produces a half-maximal response. By IC50 is commonly meant the concentration that inhibits the measured activity by half. Low values mean higher potency, high ones lower potency.

Turning to `CC(C)(C)NC(=O)[C@@H]1C[C@@H]2CCCC[C@@H]2CN1C[C@@H](O)[C@H](Cc1ccccc1)NC(=O)[C@H](CC(N)=O)NC(=O)c1ccc2ccccc2n1`, the EC50 in the assay on MT4 and in the assay with C8166 was 2 nM throughout.

With `CC(C)(C)NC(=O)[C@@H]1C[C@@H]2CCCC[C@@H]2CN1C[C@@H](O)CNC(=O)[C@@H]1N[C@@H](C(NC(=O)Cc2ccccc2)C(N)=O)SC1(C)C` (stereo partly specified), the concentration for a half-maximal effect (EC50) in the assay with MT4 turned out to be 590 nM; in the assay on C8166, 120 nM. The same compound had an IC50 in assay [1] of 23 nM.

In turn, `CC(C)(C)NC(=O)[C@@H]1C[C@@H](O)CN1CC(O)CNC(=O)[C@@H]1N[C@@H](C(NC(=O)Cc2ccccc2)C(=O)NCc2ccccc2)SC1(C)C` (stereo partly specified) yielded a half-maximal inhibitory concentration (IC50) in assay [1] of 5100 nM.

Turning to `CCCCCCCNC(=O)C(NC(=O)Cc1ccccc1)[C@@H]1N[C@@H](C(=O)NCC(O)CN2C[C@H]3CCCC[C@H]3C[C@H]2C(=O)NC(C)(C)C)C(C)(C)S1` (stereo partly specified), the EC50 in the assay with MT4 is above 100000 nM. Also, the IC50 in assay [1] is 86 nM.

For the compound `CC(C)(C)NC(=O)C1N(C[C@@H](O)CNC(=O)[C@@H]2N[C@@H](C(NC(=O)Cc3ccccc3)C(=O)NCc3ccccc3)SC2(C)C)C(C)(C)SC1(C)C` (stereo partly specified), 190 nM corresponded to half-maximal inhibition in assay [1] (IC50).

With `CC(C)(C)NC(=O)[C@@H]1C[C@@H]2CCCC[C@@H]2CN1C[C@@H](O)CNC(=O)[C@@H]1N[C@@H](C(NC(=O)Cc2ccccc2)C(=O)NCc2ccccc2)SC1(C)C` (stereo partly specified), the EC50 in the assay on MT4 was determined as 350 nM; in the assay on C8166, 50 nM. In assay [1], this compound registered an IC50 of 23 nM.

In turn, `CC(C)(C)NC(=O)[C@@H]1C[C@@H](OC(C)(C)C)CN1CC(O)CNC(=O)[C@@H]1N[C@@H](C(NC(=O)Cc2ccccc2)C(=O)NCc2ccccc2)SC1(C)C` (stereo partly specified) returned a half-inhibitory concentration (IC50) in assay [1] of 1600 nM.

The compound `CC(C)(C)NC(=O)[C@H]1N(CC(O)CNC(=O)[C@@H]2N[C@@H]([C@H](NC(=O)Cc3ccccc3)C(=O)NCc3ccccc3)SC2(C)C)CSC1(C)C` (stereo partly specified) gave an IC50 in assay [1] of 21 nM.

In assay [1], `CC(C)(C)NC(=O)[C@@H]1CCCN1CC(O)CNC(=O)[C@@H]1N[C@@H](C(NC(=O)Cc2ccccc2)C(=O)NCc2ccccc2)SC1(C)C` (stereo partly specified) [listing 1 of 2 here] came in with an IC50 of 1500 nM.

Turning to `COC(=O)C(NC(=O)Cc1ccccc1)[C@@H]1N[C@@H](C(=O)NC[C@H](O)CN2C[C@H]3CCCC[C@H]3C[C@H]2C(=O)NC(C)(C)C)C(C)(C)S1` (stereo partly specified), the response in the assay on MT4 was half-maximal at 3900 nM (EC50). In addition, the IC50 in assay [1] came to 54 nM.

Compound `CC(C)(C)NC(=O)[C@@H]1CCCCN1C[C@H](O)CNC(=O)[C@@H]1N[C@@H](C(NC(=O)Cc2ccccc2)C(=O)NCc2ccccc2)SC1(C)C` (stereo partly specified) had an IC50 in assay [1] above 2200 nM.

The compound `CC(C)(C)NC(=O)[C@@H]1C[C@H](OCc2ccccc2)CN1CC(O)CNC(=O)[C@@H]1N[C@@H](C(NC(=O)Cc2ccccc2)C(=O)NCc2ccccc2)SC1(C)C` (stereo partly specified) yielded an IC50 in assay [1] of 650 nM.

`CC(C)(C)NC(=O)[C@@H]1C[C@@H]2CCCC[C@@H]2CN1C[C@H](O)CNC(=O)[C@@H]1N[C@@H](C(NC(=O)Cc2ccccc2)C(=O)NCC2CCCCC2)SC1(C)C` (stereo partly specified) displayed a 50% inhibitory concentration (IC50) in assay [1] of 300 nM.

As for `CC(C)(C)NC(=O)[C@@H]1C[C@@H]2CCCC[C@@H]2CN1CC(O)CNC(=O)[C@@H]1N[C@@H](C(NC(=O)Cc2ccccc2)C(=O)NCCNC(=O)OC(C)(C)C)SC1(C)C` (stereo partly specified), the EC50 turned out to be 52 nM in the assay on MT4 and 100 nM in the assay on C8166. In assay [1], half-maximal inhibition (IC50) required 160 nM.

As to `CC(C)(C)NC(=O)[C@H]1CN(C(=O)Oc2ccccc2)CCN1C[C@@H](O)CNC(=O)[C@@H]1N[C@@H](C(NC(=O)Cc2ccccc2)C(=O)NCc2ccccc2)SC1(C)C` (stereo partly specified), the IC50 in assay [1] worked out at 82 nM.

For the compound `CC(C)(C)NC(=O)[C@@H]1CCCN1CC(O)CNC(=O)[C@@H]1N[C@@H](C(NC(=O)Cc2ccccc2)C(=O)NCc2ccccc2)SC1(C)C` (stereo partly specified) [listing 2 of 2 here], the IC50 in assay [1] stood at 3100 nM.

`CC(C)(C)NC(=O)[C@@H]1CN(C(=O)Oc2ccccc2)CCN1C[C@@H](O)CNC(=O)[C@@H]1N[C@@H](C(NC(=O)Cc2ccccc2)C(=O)NCc2ccccc2)SC1(C)C` (stereo partly specified): it took 58 nM to reach half-maximal inhibition in assay [1] (IC50).

`CC(C)(C)NC(=O)[C@@H]1CCCCN1C[C@@H](O)CNC(=O)[C@@H]1N[C@@H](C(NC(=O)Cc2ccccc2)C(=O)NCc2ccccc2)SC1(C)C` (stereo partly specified) displayed an IC50 in assay [1] of 6500 nM.

For `CCNC(=O)C(NC(=O)Cc1ccccc1)[C@@H]1N[C@@H](C(=O)NCC(O)CN2C[C@H]3CCCC[C@H]3C[C@H]2C(=O)NC(C)(C)C)C(C)(C)S1` (stereo partly specified), the EC50 is 430 nM in the assay with MT4 and 740 nM with C8166. This compound also came in with an IC50 in assay [1] of 31 nM.

The compound `CC(C)(C)NC(=O)C1N(C[C@H](O)CNC(=O)[C@@H]2N[C@@H](C(NC(=O)Cc3ccccc3)C(=O)NCc3ccccc3)SC2(C)C)C(C)(C)SC1(C)C` (stereo partly specified) had a 50% inhibitory concentration (IC50) in assay [1] of 93 nM.

For `CC(C)(C)NC(=O)[C@@H]1CSCN1CC(O)CNC(=O)[C@@H]1N[C@@H](C(NC(=O)Cc2ccccc2)C(=O)NCc2ccccc2)SC1(C)C` (stereo partly specified), the IC50 in assay [1] stood at 450 nM.

In the case of `C[C@@H](C(=O)NC(C)(C)C)N(CC(O)CNC(=O)[C@@H]1N[C@@H](C(NC(=O)Cc2ccccc2)C(=O)NCc2ccccc2)SC1(C)C)CC1CCCCC1` (stereo partly specified), the IC50 in assay [1] amounted to 6400 nM.

Consider `CCO[C@@H]1C[C@@H](C(=O)NC(C)(C)C)N(C[C@@H](O)CNC(=O)[C@@H]2N[C@@H](C(NC(=O)Cc3ccccc3)C(=O)NCc3ccccc3)SC2(C)C)C1` (stereo partly specified), for which, in assay [1], the IC50 was above 35000 nM.

Turning to `CC(C)(C)NC(=O)[C@@H]1C[C@@H]2CCCC[C@@H]2CN1CC(O)CNC(=O)[C@@H]1N[C@@H](C(NC(=O)Cc2ccccc2)C(=O)NCCNC(=O)CCCC[C@@H]2SC[C@@H]3NC(=O)N[C@@H]32)SC1(C)C` (stereo partly specified), in the assay with MT4, the response was half-maximal at 18000 nM (EC50). In assay [1], this compound came in with an IC50 of 120 nM.

On to `CCNC(=O)C(NC(=O)Cc1ccccc1)[C@@H]1N[C@@H](C(=O)NCC(O)CN(C)[C@@H](CC2CCCCC2)C(=O)NC(C)(C)C)C(C)(C)S1` (stereo partly specified), for which the IC50 in assay [1] stood at 710 nM.

Regarding `CC(C)(C)NC(=O)[C@@H]1C[C@@H]2CCCC[C@@H]2CN1C[C@H](O)CNC(=O)[C@@H]1N[C@@H](C(NC(=O)Cc2ccccc2)C(=O)NCc2ccccc2)SC1(C)C` (stereo partly specified), the EC50 with MT4 amounted to 13600 nM. For the same compound, in assay [1], the IC50 worked out at 160 nM.

Take `CN(C)c1ccc(CNC(=O)C(NC(=O)Cc2ccccc2)[C@@H]2N[C@@H](C(=O)NC[C@H](O)CN3C[C@H]4CCCC[C@H]4C[C@H]3C(=O)NC(C)(C)C)C(C)(C)S2)cc1` (stereo partly specified): the values for the EC50 in the assay on MT4 and with C8166 were 520 nM and 270 nM, respectively. Moreover, it took 26 nM to reach half-maximal inhibition in assay [1] (IC50).

The compound `CC1(C)S[C@H](C(NC(=O)Cc2ccccc2)C(=O)NCc2ccccc2)N[C@H]1C(=O)N[C@H](Cc1ccccc1)[C@H](O)CC(=O)NCc1ccccc1` (stereo partly specified) came in with an IC50 in assay [1] of 4600 nM.

Regarding `CCNC(=O)C(NC(=O)Cc1ccccc1)[C@@H]1N[C@@H](C(=O)NCCNC(=O)[C@@H]2N[C@@H]([C@H](NC(=O)Cc3ccccc3)C(=O)NCC)SC2(C)C)C(C)(C)S1` (stereo partly specified), it took 5400 nM to reach a half-maximal effect with MT4 (EC50). The compound further had an IC50 in assay [1] of 5 nM.

On to `CCO[C@@H]1C[C@@H](C(=O)NC(C)(C)C)N(C[C@H](O)CNC(=O)[C@@H]2N[C@@H](C(NC(=O)Cc3ccccc3)C(=O)NCc3ccccc3)SC2(C)C)C1` (stereo partly specified), for which the IC50 in assay [1] was above 35000 nM.
